Results: patent US11958859B2, “Use of pyridoxal acetal salts as water-triggered pro-fragrances” (Florida Gulf Coast University Board of Trustees, priority 2018, dated 2024)

Legend:
[1] = Hydrolysis (acetal cleavage) of pyridoxal acetal salts in D2O/DMSO-d6, release of the alcohol monitored by time-dependent 1H NMR; type: physicochemical; settings: for release of alcohol from the respective pyridoxal acetal: 0.2 M, 30% D2O in DMSO-d6, after 22 hours
Experimental: The hydrolysis of the target alcohol from the pyridoxal acetal salt in the presence of D2O was monitored by ^1H NMR spectroscopy. This was accomplished by comparing the formation of hemiacetal C—H peak to the loss of the acetal C—H peak. For substrate 3a, the integration of the acetal C—H peak at 6.58 ppm was compared to the integration of the pyridoxal hemiacetal C—H peak at 6.41 ppm hourly to determine conversion. A stack plot of the NMR spectra for 50% D2O solution in DMSO-d6 over 20 hours is illustrated in FIG. 2.
To determine the kinetics of the hydrolysis with respect to the concentration of water, acetal 3a was exposed to varying concentrations of D2O The release of ethanol from 3a was measured at concentrations of 25%, 35%, 50%, and 100% D2O in DMSO-d6 and is plotted in FIG. 3. […] The 100% D2O trial provides full cleavage after 10 hours whereas a lowest concentration of D2O (25%) provides the slowest release at only 28% cleaved after 25 hours. The 50% D2O trial provided 74% release after 25 hours and the 35% D2O trial provided 42% release.
The rate of release for ethanol (blue), isopropanol (red), 2-phenylethanol (green), and geraniol (purple) were monitored at a 0.2 M concentration of 30% D2O in DMSO-d6 from the respective pyridoxal acetal. […] In all cases, the acetals hydrolyze to release the target molecule and pyridoxal HCl quantitatively. Since other fragrance delivery systems can lose material in side reactions (H. Q. N. Gunaratne et al., Chem. Commun., 2015, 51, 4455), the high fidelity in the release for these alcohols is significant.
The acetal cleavage was measured by comparing the integration of Ha to Hb whereas Hb/(Ha+Hb) provides the percent completion for the acetal cleavage for 3a and 3b. The stack plots in FIGS. 7-11 provide a visual counterpart to the graphs. 3c had some overlap between Ha and Hb so the fully separated methyl groups of the isopropyl were integrated instead.
3a (0.1636 mmol) was dissolved in 0.4 mL of DMSO-d6 (except for 100% D2O) and varying amounts of D2O were added, as shown in the table below (see corresponding stack plots in FIGS. 7-11).

Structure (SMILES) | release of alcohol from the respective pyridoxal acetal [1] [%] | melting point [°C] | acetal cleaved (release of ethanol) ([1]; 25% D2O in DMSO-d6, after 25 hours) [%] | dependence of release rate on water concentration ([1]; 25%, 35%, 50%, 100% D2O in DMSO-d6, FIG. 3) | release of ethanol ([1]; 35% D2O in DMSO-d6 (time not restated; 25 hours implied)) [%] | release of ethanol ([1]; 50% D2O in DMSO-d6, after 25 hours) [%] | cleavage of acetal (release of ethanol) ([1]; 100% D2O, after 10 hours, 1H NMR)
Cc1ncc2c(c1O)C(OC(C)C)OC2.Cl (stereo not shown) [3c, 7-hydroxy-1-isopropoxy-6-methyl-1,3-dihydrofuro[3,4-c]pyridin-5-ium chloride] | 37 | 116 to 121 |  |  |  |  | 
Cc1ncc2c(c1O)C(OCCc1ccccc1)OC2.Cl (stereo not shown) |  | 168 to 172 |  |  |  |  | 
CCOC1OCc2cnc(C)c(O)c21.Cl (stereo not shown) [3a, 1-ethoxy-7-hydroxy-6-methyl-1,3-dihydrofuro[3,4-c]pyridin-5-ium chloride] | 35 | 97 to 103 | 28 | rate increases with higher concentrations of D2O | 42 | 74 | full cleavage
